Measurements from PubChem BioAssay (NCI).
Several values for one entry are separate records, joined by “and”; a condition that tells them apart may be missing. Identical values can stand only once.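 Briefly, cells in 96-well plates were exposed to five compound concentrations for 48 h, and endpoints were estimated by linear interpolation. At the GI50, growth is halved. The concentration for full growth arrest is given as TGI.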

Columns and labels:
Experiment in all cases: NCI-60 cell line screen, 48 h
SK-OV-3 ovarian = tested on: SK-OV-3 ovarian
SNB-19 CNS = tested on: SNB-19 CNS
CCRF-CEM leukemia = tested on: CCRF-CEM leukemia
NCI-H226 lung = tested on: NCI-H226 lung
HOP-62 NSCLC = tested on: HOP-62 NSCLC
MDA-MB-231 breast = tested on: MDA-MB-231 breast
SF-539 CNS = tested on: SF-539 CNS
SF-295 CNS = tested on: SF-295 CNS
786-0 renal = tested on: 786-0 renal
SNB-75 CNS = tested on: SNB-75 CNS

| Structure (SMILES) | GI50 (SK-OV-3 ovarian) | TGI (SK-OV-3 ovarian) [µM] | GI50 (SNB-19 CNS) | TGI (SNB-19 CNS) [µM] | GI50 (CCRF-CEM leukemia) | TGI (CCRF-CEM leukemia) [µM] | GI50 (NCI-H226 lung) [µM] | TGI (NCI-H226 lung) [µM] | GI50 (HOP-62 NSCLC) | TGI (HOP-62 NSCLC) [µM] | GI50 (MDA-MB-231 breast) | TGI (MDA-MB-231 breast) [µM] | GI50 (SF-539 CNS) | TGI (SF-539 CNS) | GI50 (SF-295 CNS) | TGI (SF-295 CNS) [µM] | GI50 (786-0 renal) | TGI (786-0 renal) [µM] | GI50 (SNB-75 CNS) | TGI (SNB-75 CNS) [µM] |
| --- | --- | --- | --- | --- | --- | --- | --- | --- | --- | --- | --- | --- | --- | --- | --- | --- | --- | --- | --- | --- |
| O=C(O)CN(CCN(CC(=O)O)CC(=O)O)CC(=O)O.[Mn+2] | > 100 µM | > 100 | > 100 µM | > 100 | > 100 µM | > 100 | > 100 | > 100 | > 100 µM | > 100 | > 100 µM | > 100 | > 100 µM | > 100 µM | > 100 µM | > 100 | > 100 µM | > 100 | > 100 µM | > 100 |
| CC[C@H](C)[C@H](NC(=O)[C@H]1CCCCN1C)C(=O)N(C)[C@H](C[C@@H](OC(C)=O)c1nc(C(=O)NC23CC(C(=O)OC)(C2)C3)cs1)C(C)C | 0.0022 µM and 0.00357 µM | > 32.5 | 0.00105 µM and 0.00325 µM | > 32.5 | 0.000402 µM and 0.00325 µM | 1.47 | 0.133 | 9.18 | 0.000538 µM and 0.00325 µM |  | 0.00163 µM and 0.00363 µM | > 32.5 | 0.000553 µM and 0.00325 µM | 0.00779 µM and 0.00601 µM | 0.00128 µM and 0.00325 µM |  | 0.00064 µM and 0.00325 µM | > 32.5 | 0.000382 µM and 0.00325 µM | > 32.5 |
| COc1ccc(-c2nc3ccc(Cc4ccc5nc(-c6ccc(OC)cc6)[nH]c5c4)cc3[nH]2)cc1 | 0.0314 µM | 1.89 | 0.0469 µM | 5.8 | < 0.01 µM | 0.275 | 0.475 | 2.56 | 0.0291 µM | 2.07 | 0.0476 µM | 0.586 | 0.022 µM | 0.0707 µM | 0.0176 µM | 0.364 | 0.0358 µM | 0.381 | 0.0259 µM | 1.23 |
| CN(C)c1ccc(-c2cc(-c3ccc(Nc4nc(Nc5ccc(Cl)cc5)nc(Nc5ccc(Cl)cc5)n4)cc3)nc(N)c2C#N)cc1 | > 100 µM | > 100 | > 100 µM | > 100 | 2.59 µM | 36.5 | 3.58 | 24.4 | > 100 µM | > 100 | 5.51 µM | 60.3 | 19.8 µM | > 100 µM | 13.9 µM | > 100 | 16.7 µM | > 100 | 3.05 µM | > 100 |
| COc1cc(OC)c(OC)cc1/C=C/c1nc2ccccc2s1 |  | > 100 |  | > 100 |  | > 100 |  | > 100 |  | > 100 |  | > 100 |  | > 100 µM |  | > 100 |  | > 100 |  | > 100 |
| CCCCCCCCCCCC[C@@H](O)[C@H]1CC[C@H]([C@H](O)CC[C@H](O)[C@@H]2CC[C@@H](CCCCCCCC3=C[C@H](C)OC3=O)O2)O1 |  | > 50 | 9.69 µM | > 50 | 1.22 µM | > 50 |  | > 50 |  | > 50 |  | > 50 |  | > 50 µM | 2.4 µM | > 50 | 6.4 µM | > 50 |  | > 50 |
| CCCCCC/C=C\CCCCCCCCC(=O)c1cccc(OC)c1OC |  | > 100 |  | > 100 |  | > 100 |  | > 100 |  | > 100 |  | > 100 |  | > 100 µM |  | > 100 |  | > 100 |  | > 100 |
| Cn1c(=O)c2nc3sc4c(n3c2n(C)c1=O)C(=O)c1ccccc1C4=O |  | > 60.9 |  | > 66 |  | > 50.3 |  | > 87.2 |  | > 53.3 |  | > 64.6 |  | > 74.2 µM |  | > 100 |  | > 78.2 |  | 72.1 |
| CNCc1ccc(-c2cc(-c3nc(-c4ccc(S(=O)(=O)C(C)C)cc4)cnc3N)on2)cc1 | 6.57 µM | 24.7 | 12.1 µM | 36.8 | 0.215 µM | 3.42 | 18.8 | 44.1 | 4.56 µM | 22.6 | 3.8 µM | 19.6 | 0.502 µM | 1.88 µM | 4.5 µM | 22.9 | 0.362 µM | 11.3 | 11.4 µM | 26.4 |
| CCCCCC(=O)O[C@]1(C(C)=O)CCC2C3CCC4=CC(=O)CC[C@]4(C)C3CC[C@@]21C (some centres not stated) | 3.25 µM | 13.3 | 3.27 µM | > 64.8 | 2.3 µM | 5.83 | 1.8 | 4.78 | 3.33 µM | 10.9 | 2.49 µM | 7.88 | 2.94 µM | 8.31 µM | 2.87 µM | 12.5 | 2.71 µM | 8.73 | 2.15 µM | 12.6 |
| CCCCS(=O)c1sc2nc(-c3cccs3)cc(-c3ccccc3)c2c1N (configuration not stated) | 27.8 µM | 97.3 | 18.7 µM | > 100 | 6.71 µM | > 84.8 | 17.8 | > 100 | 31.1 µM | > 100 | 18.2 µM | > 100 | 24.7 µM | > 100 µM | 9.88 µM | > 100 | 8.26 µM | > 100 | 10.2 µM | 98.7 |
| C(=Nc1nc(SCc2ccccc2)nc2[nH]ncc12)c1cccs1 | > 100 µM | > 100 | 26.4 µM | > 100 | 37.2 µM | > 100 | 45.7 | > 100 | > 100 µM | > 100 | 37.3 µM | > 100 | 24.8 µM | > 100 µM | > 100 µM | > 100 | 79.7 µM | > 100 | > 100 µM | > 100 |
| Cc1cc(Br)c(NC(=O)c2c(-c3c(Cl)cccc3Cl)noc2C)c(Br)c1 | > 100 µM | > 100 | > 100 µM | > 100 | > 100 µM | > 100 | 82.5 | > 100 | 30.8 µM | > 100 | > 100 µM | > 100 | > 100 µM | > 100 µM | 2.15 µM | > 100 | > 100 µM | > 100 | 47.2 µM | > 100 |
| CC(=O)Oc1c(C(=O)[O-])cc(C(C)C)cc1C(C)C.CC(=O)Oc1c(C(=O)[O-])cc(C(C)C)cc1C(C)C.CC(=O)Oc1c(C(=O)[O-])cc(C(C)C)cc1C(C)C.CC(=O)Oc1c(C(=O)[O-])cc(C(C)C)cc1C(C)C.[Cu+2].[Cu+2] | 14.4 µM | 35.4 | 26.3 µM | 61.7 | 20.5 µM | 53.7 | 69.3 | > 100 | 25 µM | 54.4 | 33.9 µM | > 100 | 72.3 µM | > 100 µM | 24.4 µM | 70.5 | 63.6 µM | > 100 | 34.3 µM | 77.6 |
| NC(N)=NCCCC(NCc1c2ccccc2nc2ccccc12)C(=O)O (configuration not stated) |  | > 100 |  | > 100 |  | 75.1 |  | > 100 |  | > 100 |  | > 100 |  | > 100 µM |  | > 100 |  | > 100 |  | > 100 |
